According to PubChem BioAssay (NCI):
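Dose response: 5 concentrations. Exposure: 48 h. Format: 96-well plates. Endpoint: linear interpolation; highest concentration if not reached. GI50: concentration for 50% inhibition of growth. TGI denotes the concentration required for complete inhibition of growth.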

Legend:
Assay in all cases: NCI tumour cell line growth inhibition, 48 h
DU-145 prostate = tested on: DU-145 prostate
RPMI-8226 leukemia = tested on: RPMI-8226 leukemia
A498 renal = tested on: A498 renal
NCI-H23 lung = tested on: NCI-H23 lung
T-47D breast = tested on: T-47D breast
CAKI-1 renal = tested on: CAKI-1 renal
HL-60(TB) leukemia = tested on: HL-60(TB) leukemia
OVCAR-8 ovarian = tested on: OVCAR-8 ovarian
BT-549 breast = tested on: BT-549 breast
UACC-62 melanoma = tested on: UACC-62 melanoma
EKVX NSCLC = tested on: EKVX NSCLC
HOP-92 NSCLC = tested on: HOP-92 NSCLC
NCI-H226 lung = tested on: NCI-H226 lung
786-0 renal = tested on: 786-0 renal
IGROV1 ovarian = tested on: IGROV1 ovarian
SF-539 CNS = tested on: SF-539 CNS
NCI-H460 lung = tested on: NCI-H460 lung
NCI/ADR-RES ovarian = tested on: NCI/ADR-RES ovarian
A549 NSCLC = tested on: A549 NSCLC
SW-620 colon = tested on: SW-620 colon
UACC-257 melanoma = tested on: UACC-257 melanoma
PC-3 prostate = tested on: PC-3 prostate
MOLT-4 leukemia = tested on: MOLT-4 leukemia
SF-295 CNS = tested on: SF-295 CNS
OVCAR-3 ovarian = tested on: OVCAR-3 ovarian
HOP-62 NSCLC = tested on: HOP-62 NSCLC
U251 CNS = tested on: U251 CNS
LOX IMVI melanoma = tested on: LOX IMVI melanoma
SK-MEL-5 melanoma = tested on: SK-MEL-5 melanoma
NCI-H522 lung = tested on: NCI-H522 lung
RXF 393 renal = tested on: RXF 393 renal
HCT-116 colon = tested on: HCT-116 colon
UO-31 renal = tested on: UO-31 renal
OVCAR-5 ovarian = tested on: OVCAR-5 ovarian
SR leukemia = tested on: SR leukemia
KM12 colon = tested on: KM12 colon
MCF7 breast = tested on: MCF7 breast
K-562 leukemia = tested on: K-562 leukemia
SK-OV-3 ovarian = tested on: SK-OV-3 ovarian
HT29 colon = tested on: HT29 colon
SK-MEL-2 melanoma = tested on: SK-MEL-2 melanoma
SNB-19 CNS = tested on: SNB-19 CNS
HS 578T breast = tested on: HS 578T breast
MALME-3M melanoma = tested on: MALME-3M melanoma
HCT-15 colon = tested on: HCT-15 colon
MDA-MB-231 breast = tested on: MDA-MB-231 breast
MDA-MB-435 = tested on: MDA-MB-435
TK-10 renal = tested on: TK-10 renal
SK-MEL-28 melanoma = tested on: SK-MEL-28 melanoma
SF-268 CNS = tested on: SF-268 CNS
ACHN renal = tested on: ACHN renal
SN12C renal = tested on: SN12C renal
SNB-75 CNS = tested on: SNB-75 CNS
HCC-2998 colon = tested on: HCC-2998 colon
M14 melanoma = tested on: M14 melanoma
CCRF-CEM leukemia = tested on: CCRF-CEM leukemia

`C=C1CCC2C3(C)COC(c4ccc(Cl)cc4)OC3CCC2(C)C1/C=C/C1=CCOC1=O` (stereo unspecified) was tested, and the GI50 (DU-145 prostate) was 24 µM, the TGI (DU-145 prostate) was > 100 µM and the GI50 (RPMI-8226 leukemia) was 0.602 µM. For the same compound, the TGI (RPMI-8226 leukemia) was > 100 µM, the GI50 (A498 renal) was 2.18 µM and the TGI (A498 renal) was 31.5 µM. For the same compound, the GI50 (NCI-H23 lung) was 3.19 µM, the TGI (NCI-H23 lung) was > 100 µM and the GI50 (T-47D breast) was 0.821 µM. The TGI (T-47D breast) was 21.4 µM, the GI50 (CAKI-1 renal) was 6.87 µM and the TGI (CAKI-1 renal) was > 100 µM. The GI50 (HL-60(TB) leukemia) was 17 µM, the TGI (HL-60(TB) leukemia) was > 100 µM and the GI50 (OVCAR-8 ovarian) was 4.07 µM. The TGI (OVCAR-8 ovarian) was > 100 µM, the GI50 (BT-549 breast) was 4.79 µM and the TGI (BT-549 breast) was 80.5 µM. The GI50 (UACC-62 melanoma) was 4 µM, the TGI (UACC-62 melanoma) was > 100 µM and the GI50 (EKVX NSCLC) was 0.751 µM. It also gave a TGI (EKVX NSCLC) of 29.8 µM, a GI50 (HOP-92 NSCLC) of 9.96 µM and a TGI (HOP-92 NSCLC) of 39.1 µM. For the same compound, the GI50 (NCI-H226 lung) was 7.06 µM, the TGI (NCI-H226 lung) was > 100 µM and the GI50 (786-0 renal) was 29.8 µM. The TGI (786-0 renal) was > 100 µM, the GI50 (IGROV1 ovarian) was 50 µM and the TGI (IGROV1 ovarian) was > 100 µM. The GI50 (SF-539 CNS) was 11.2 µM, the TGI (SF-539 CNS) was > 100 µM and the GI50 (NCI-H460 lung) was 4.42 µM. For the same compound, the TGI (NCI-H460 lung) was > 100 µM, the GI50 (NCI/ADR-RES ovarian) was 4.98 µM and the TGI (NCI/ADR-RES ovarian) was > 100 µM. For the same compound, the GI50 (A549 NSCLC) was 2.37 µM, the TGI (A549 NSCLC) was 32.5 µM and the GI50 (SW-620 colon) was > 100 µM. For the same compound, the TGI (SW-620 colon) was > 100 µM, the GI50 (UACC-257 melanoma) was 4.63 µM and the TGI (UACC-257 melanoma) was > 100 µM. For the same compound, the GI50 (PC-3 prostate) was 1.67 µM, the TGI (PC-3 prostate) was 69.9 µM and the GI50 (MOLT-4 leukemia) was 4.5 µM. The TGI (MOLT-4 leukemia) was > 100 µM, the GI50 (SF-295 CNS) was 1.83 µM and the TGI (SF-295 CNS) was 22.5 µM. It also gave a GI50 (OVCAR-3 ovarian) of 7.52 µM, a TGI (OVCAR-3 ovarian) of 56.8 µM and a GI50 (HOP-62 NSCLC) of 26.8 µM. The TGI (HOP-62 NSCLC) was > 100 µM, the GI50 (U251 CNS) was 5.68 µM and the TGI (U251 CNS) was 46.2 µM. For the same compound, the GI50 (LOX IMVI melanoma) was 0.985 µM, the TGI (LOX IMVI melanoma) was 17.6 µM and the GI50 (SK-MEL-5 melanoma) was 1.88 µM. It also gave a TGI (SK-MEL-5 melanoma) of 31.1 µM, a GI50 (NCI-H522 lung) of 1.11 µM and a TGI (NCI-H522 lung) of 36.7 µM. The GI50 (RXF 393 renal) was 12 µM, the TGI (RXF 393 renal) was 58.2 µM and the GI50 (HCT-116 colon) was 2.54 µM. For the same compound, the TGI (HCT-116 colon) was > 100 µM, the GI50 (UO-31 renal) was > 100 µM and the TGI (UO-31 renal) was > 100 µM. The GI50 (OVCAR-5 ovarian) was 70.2 µM, the TGI (OVCAR-5 ovarian) was > 100 µM and the GI50 (SR leukemia) was 1.37 µM. For the same compound, the TGI (SR leukemia) was > 100 µM, the GI50 (KM12 colon) was 9.19 µM and the TGI (KM12 colon) was > 100 µM. The GI50 (MCF7 breast) was 3.35 µM, the TGI (MCF7 breast) was > 100 µM and the TGI (K-562 leukemia) was > 100 µM. The GI50 (SK-OV-3 ovarian) was 16.7 µM, the TGI (SK-OV-3 ovarian) was 74.5 µM and the GI50 (HT29 colon) was 5.52 µM. The TGI (HT29 colon) was > 100 µM, the GI50 (SK-MEL-2 melanoma) was 17.9 µM and the TGI (SK-MEL-2 melanoma) was > 100 µM. The GI50 (SNB-19 CNS) was 15.9 µM, the TGI (SNB-19 CNS) was 88.4 µM and the GI50 (HS 578T breast) was 11.5 µM. It also gave a TGI (HS 578T breast) of 42.5 µM, a GI50 (MALME-3M melanoma) of 11.3 µM and a TGI (MALME-3M melanoma) of 71.4 µM. For the same compound, the GI50 (HCT-15 colon) was 4.79 µM, the TGI (HCT-15 colon) was > 100 µM and the GI50 (MDA-MB-231 breast) was 6.68 µM. The TGI (MDA-MB-231 breast) was > 100 µM, the GI50 (MDA-MB-435) was 4.19 µM and the TGI (MDA-MB-435) was > 100 µM. The GI50 (TK-10 renal) was 14.4 µM, the TGI (TK-10 renal) was > 100 µM and the GI50 (SK-MEL-28 melanoma) was 21.7 µM. For the same compound, the TGI (SK-MEL-28 melanoma) was > 100 µM, the GI50 (SF-268 CNS) was 19.9 µM and the TGI (SF-268 CNS) was > 100 µM. For the same compound, the GI50 (ACHN renal) was 12.1 µM, the TGI (ACHN renal) was 50.9 µM and the GI50 (SN12C renal) was 7.56 µM. The TGI (SN12C renal) was > 100 µM, the GI50 (SNB-75 CNS) was 12.1 µM and the TGI (SNB-75 CNS) was 41.5 µM. For the same compound, the GI50 (HCC-2998 colon) was 6.73 µM, the TGI (HCC-2998 colon) was > 100 µM and the GI50 (M14 melanoma) was 27.2 µM. The TGI (M14 melanoma) was > 100 µM, the GI50 (CCRF-CEM leukemia) was 1.56 µM and the TGI (CCRF-CEM leukemia) was 12.6 µM.
